Test results reported in paper PMC6271731, “Multitarget Molecular Hybrids of Cinnamic Acids” (Molecules, 2014).
Like-named read-outs stand apart in the source and are kept apart here. Marks after values point to notes of the source that are not given here.

Columns and labels:
soybean lipoxygenase = target: T1, soybean lipoxygenase (Glycine max, UniProt P08170); assay: Soybean lipoxygenase inhibition in vitro; type: biochemical
T1 construct: purchased Sigma Chemical, Co. (St. Louis, MO, USA)
T1 sequence (P08170 1-839): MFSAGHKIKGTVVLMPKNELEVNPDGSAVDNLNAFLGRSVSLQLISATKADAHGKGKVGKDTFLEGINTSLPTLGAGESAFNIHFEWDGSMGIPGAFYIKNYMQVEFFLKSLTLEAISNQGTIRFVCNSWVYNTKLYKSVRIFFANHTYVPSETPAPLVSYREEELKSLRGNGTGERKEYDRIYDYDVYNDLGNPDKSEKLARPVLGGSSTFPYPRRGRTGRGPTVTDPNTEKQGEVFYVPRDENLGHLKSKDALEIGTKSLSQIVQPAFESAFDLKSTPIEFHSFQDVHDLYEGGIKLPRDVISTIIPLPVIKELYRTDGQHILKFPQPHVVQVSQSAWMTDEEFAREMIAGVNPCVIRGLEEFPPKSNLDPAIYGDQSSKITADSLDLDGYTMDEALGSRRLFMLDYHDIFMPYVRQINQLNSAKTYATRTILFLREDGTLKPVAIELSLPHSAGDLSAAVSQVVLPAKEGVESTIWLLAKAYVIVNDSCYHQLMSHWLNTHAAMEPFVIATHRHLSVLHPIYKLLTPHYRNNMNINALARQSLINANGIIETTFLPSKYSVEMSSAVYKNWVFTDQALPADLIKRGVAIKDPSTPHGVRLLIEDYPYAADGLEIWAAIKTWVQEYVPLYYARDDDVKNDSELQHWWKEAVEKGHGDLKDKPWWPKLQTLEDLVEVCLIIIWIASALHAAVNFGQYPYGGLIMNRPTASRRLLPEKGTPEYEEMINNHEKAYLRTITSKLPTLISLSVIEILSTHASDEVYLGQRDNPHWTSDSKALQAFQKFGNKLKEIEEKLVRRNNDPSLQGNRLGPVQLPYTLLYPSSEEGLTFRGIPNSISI
Description: DMSO solution of the tested compound was incubated with sodium linoleate (0.1 mM) and 0.2 mL of soybean lipoxygenase solution (1/9 × 10^−4 w/v in saline) in buffer pH 9 (tris) and at room temperature. […] The results are given in Table 1 expressed as IC50 values or % inhibition at 100 μM.

[1] = Inhibition of linoleic acid lipid peroxidation (AAPH); settings: % inhibition at 100 μM; pH 7.4, 37 °C
Description: Production of conjugated diene hydroperoxide by oxidation of sodium linoleate in an aqueous dispersion is monitored at 234 nm. AAPH is used as a free radical initiator [12, 24]. Ten microlitres of the 16 mM sodium linoleate solution was added to the UV cuvette containing 930 μL of 0.05 M phosphate buffer, pH 7.4 prethermostated at 37 °C. The oxidation reaction was initiated at 37 °C under air by the addition of 40 mM AAPH solution (50 μL). Ten μL of the tested compounds were added in the mixture. Lipid oxidation was measured in the presence of the same level of DMSO. The rate of oxidation at 37 °C was monitored by recording the increase in absorption at 234 nm caused by conjugated diene hydroperoxides. The results were compared to the appropriate standard inhibitor trolox (63%) (Table 1).

[2] = tested on: acetic acid-induced writhing; assay: Antinociceptive screen (writhing test); type: in vivo, Wistar rats; settings: Rattus norvegicus, ip, 0.5 h, i.p. 30 min before 0.6% acetic acid, writhes counted over 30 min, read-out: % ANA (in vivo analgesic-antinociceptive activity)
Description: (§1) Anti-inflammatory tests were conducted on Fisher-344 inbred rats of ca. 200 g body weight whereas antinociception and motor and sensory functions after sciatic nerve crash were performed on Wistar rats. Both sexes were used. Females pregnant were excluded. Each group was composed of 6 animals. The animals, which have been bred in our laboratory, were housed under standard conditions and received a diet of commercial food pellets and water ad libitum during the maintenance. Our studies were carried out in accordance with recognised guidelines on animal experimentation.
[…] Controls received the liquid vehicle only. All the in vivo experiments were repeated at least in triplicate and were subjected to statistic analysis using the student’s t-test.
The writhing reflex was used. The test compounds were administered i.p. 30 min prior to the i.p. administration of 1 mL/100 g body weight of 0.6% acetic acid. […] After 5 min, the number of stretches characterized by repeated contractions of the abdominal musculature accompanied by extension of the hind limbs was counted every 5 min for the next 30 min. […] The % antinociceptive activity (a:a) was calculated as: % a:a = (n − n'/n) × 100 (a: a analgesic activity, n average number of writhes of control group, n' average number in the test group).

[3] = tested on: carrageenin-induced rat paw oedema; assay: Inhibition of the carrageenin-induced rat paw oedema; type: in vivo, Fisher-344 rats; settings: 0.01 mmol/1 kg, i.p., 3.5 h after carrageenin
Description: as §1
The tested compounds 0.01 mmol/kg body weight were suspended in water with few drops of Tween 80 and ground in a mortar before use. Controls received the liquid vehicle only. All the in vivo experiments were repeated at least in triplicate and were subjected to statistic analysis using the student’s t-test.
Oedema was induced in the right hind paw of Fisher 344 rats by the intradermal injection of 0.1 mL 2% carrageenin in water. Each group was composed of 6 animals which they were entirely fasted during the experiment period. The tested compounds 0.01 mmol/kg body weight, were given intraperitoneally simultaneously with the carrageenin injection. The rats were euthanized 3.5 h after carrageenin injection. The difference between the weight of the injected and not-injected paws was calculated for each animal. The change in paw weight was compared with that in control animals (treated with water) and expressed as a percent inhibition of the oedema (ICPE % values in Table 1). Indomethacin 0.01 mmol/kg was used as reference compound. ICPE % are the mean values from two different experiments with a standard error of the mean less than 10%.

sciatic nerve crush = assay: Sciatic Functional Index after sciatic nerve crush; type: in vivo, Wistar rats
Description: SFI is the current standard for measuring functional recovery following rat sciatic nerve crush. Its calculation involves the measurement of wide-ranging relationships between feet and toes of the hindlimb of recovering animals. SFI values close to −100 indicate severe damage, while SFI values close to 0 indicate normal function. The treated rats improved their walk and the relationship between feet and toes of the crushed hindlimbs starting from day 14 to day 21.
One day prior to the surgery and the behavioral testing, Wistar rats were handled by the investigators and introduced to the testing environment for a brief period of time. Rats were anesthetized with chloral hydrate 4.5% (1 mL/100 g). […] After the exposure, the nerve was crushed once for 30 s at standardized force. The muscle was reapproximated and the skin incision was closed using 6 to 0 sutures. The examination of the loss of sensory and motor function in the operated limb established the crush completeness. Digits in the operated limb were pinched with a blunt forceps. Absence of foot withdrawal and vocalization was recorded as loss of sensory and motor function. Animals were placed under a heating lamp until they recovered from the anesthesia and they returned to their home cages.
The tested solutions were freshly prepared on surgery day (day 0).
[…] The day of the surgery is considered as day 0 [36, 37, 38].
In the present study, the plantar surfaces of the hindlimbs of the rats were impregnated with ink and then the animals were allowed to walk on a paper along a corridor, leaving footprints during walking.
A wooden corridor (1 m × 8 cm) with raised sidewalls was used. Two and a half white paper strips (40 × 7.5 cm) were placed along the corridor and were fixed with adhesive tape closely together and at the base and the sidewalls of the corridor. Each rat was trained to walk steadily along the corridor without stops until it made three at least successful efforts of continuous walking. The footprints were allowed to dry and were then converted into digital images using a computer and a high resolution scanner. The image processing was done by using the ImageJ. This is an open-source image analysis software created in 1997 by Rayne Rasband (National Institute of Health), widely used in medical applications, especially neuroscience, for measuring distances and surface and plotting the data. The footprints were analyzed as described by Bain et al. in measurements were included: • (i) print length (PL): distance from the heel to the third toe, • (ii) toe spread (TS) distance from the first to the fifth toe on both sides and • (iii) intermediate toe spread (ITS) the distance between the middle of the second and fourth toe
All measurements were taken both from the experimental (EPL, ETS, EIT) and the normal (NPL, NTS, NIT) side. The formula used to calculate SFI was the following: SFI = −38.3 (EPL − NPL)/NPL + 109.5 (ETS − NTS)/NTS + 13.3 (EIT − NIT)/NIT − 8.8

[4] = Lipophilicity as RM values by RP-TLC; type: physicochemical; settings: methanol/water 70/30, 24 °C, average of at least five measurements
Description: Since lipophilicity is a significant physicochemical property determining distribution, bioavailability, metabolic activity and elimination, we tried to determine experimentally the lipophilicity of the new substances by a RPTLC method as RM values (Table 1) and to compare them with the corresponding theoretically calculated clog p values in n-octanol-buffer. This is considered to be a reliable, fast and convenient method for expressing lipophilicity. Lipophilicity (Table 2), was theoretically calculated as Clog p values in n-octanol-buffer by the CLOGP Programme of Biobyte Corp..
Reversed phase TLC (RP-TLC) was performed on silica gel plates impregnated with 5% (v/v) liquid paraffin in light petroleum ether. The mobile phase was a methanol/water mixture (70/30, v/v). The plates were developed in closed chromatography tanks saturated with the mobile phase at 24 °C. Spots were detected under UV light. RM values were determined from the corresponding Rf values (from five individual measurements) using the equation RM = log [(1/Rf) − 1] (Table 1).

[5] = target: T2, pancreatic bovine trypsin (Bos taurus, UniProt P00760); assay: Inhibition of trypsin induced proteolysis in vitro; type: biochemical; settings: bovine albumin substrate, pH 7.6, 37 °C; read-out: IC50 μM Trypsin Inh.
T2 construct: purchased Sigma Chemical, Co. (St. Louis, MO, USA)
T2 sequence (P00760 24-246): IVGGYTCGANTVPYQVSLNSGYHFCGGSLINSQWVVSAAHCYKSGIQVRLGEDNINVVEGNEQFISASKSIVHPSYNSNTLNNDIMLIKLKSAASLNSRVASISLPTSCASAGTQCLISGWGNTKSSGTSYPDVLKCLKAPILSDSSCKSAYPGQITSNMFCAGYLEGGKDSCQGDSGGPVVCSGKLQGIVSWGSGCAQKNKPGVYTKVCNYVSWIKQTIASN
Description: All chemicals, solvents, chemical and biochemical reagents were of analytical grade and purchased from commercial sources (Merck, Merck KGaA, Darmstadt, Germany, Fluka Sigma-Aldrich Laborchemikalien GmbH, Hannover, Germany, Alfa Aesar, Karlsruhe, Germany and Sigma, St. Louis, MO, USA). Soybean lipoxygenase, pancreatic bovine trypsin, sodium linoleate, free radical DPPH and 2,2-azinobis-2-methyl-propanimidamine HCl (AAPH) were obtained from Sigma Chemical, Co. (St. Louis, MO, USA), carrageenin, type K, was commercially available. All starting materials were obtained from commercial sources and used without further purification.
The test was carried out according to a modified Kunitz method. Bovine albumin was used as substrate for trypsin. The reaction mixture consisted of 0.075 mg/mL trypsin (200 μL) and 780 μL of phosphate buffer pH 7.6 (including the tested compounds (20 μL in DMSO, final concentration 100 μM) preincubated at 37 °C for 20 min and then 1 mL of albumin (stock solution 6 g/100 mL in phosphate buffer 0.1 M, pH 7.6) was added and incubated at 37 °C for 30 min. After the incubation 1 mL of 5% trichloroacetic acid was added to the incubated solution to stop the enzyme’s reaction and allowed to set at room temperature for 1 h. Then the solution was filtered by filter paper and the absorption of the filtered solution was measured at 280 nm. Salicylic acid was used as a reference compound (Table 1).

esterase = assay: In vitro esterase activity on hybrids; type: in vitro ADME; settings: 1 mM, phosphate buffer pH 7.8, 37 °C, 90 min and 24 h
Description: Representative hybrid molecules are subjected to an esterase activity in vitro. 100 μL of 1 mg/mL 0.001 N hydrochloric acid of esterase solution was added to 1,250 μL of phosphate buffer (0.1 M) pH 7.8 including the tested compounds (150 μL in DMSO, final concentration 1 mM) and incubated at 37 °C for 90 min. The incubated solution was allowed to set at room temperature. Then, the absorption was measured at 256 nm. The measurement was repeated after 24 h of incubation at 37 °C.

[6] = sodium linoleate 0.1 mM, tris buffer pH 9, room temperature, read-out: IC50 μM LOX Inh.
[7] = single i.p. dose 0.01 mmol/mL/kg, 8 h after surgery

SMILES | IC50 (soybean lipoxygenase; [6]) [µM] | AAPH % (% inhibition of lipid peroxidation) [1] [%] | inhibition in vivo at 0.01 mmol/0.1 kg [2] [%] | % ICPE (carrageenin-induced rat paw oedema inhibition) [3] | IC50 (soybean lipoxygenase) [µM] | RM (±S.D.) [4] | also measured
CC(=O)Nc1ccc(O)cc1 [Paracetamol, 4-acetamidophenol, reference compound] | 82 | 91 | 66 | 21 * % | – | – | % ICPE (carrageenin-induced rat paw oedema inhibition) ([3]; listed as paracetamol): 21%; SFI, Day before Crash (sciatic nerve crush; baseline before surgery and dosing): −12; SFI, Day-1 (sciatic nerve crush; [7]): −93.3; SFI, Day-7 (sciatic nerve crush; [7]): −93.3; SFI, Day-14 (sciatic nerve crush; [7]): −36; SFI, Day-21 (sciatic nerve crush; [7]): −18.5
COc1ccc2c(c1)c(CC(=O)O)c(C)n2C(=O)c1ccc(Cl)cc1 [Indomethacin, reference compound] | – | – | – | 47 * % | – | – | % ICPE (carrageenin-induced rat paw oedema inhibition) ([3]; listed as indomethacin): 47%
O=C(O)/C=C/c1ccc(OCc2ccc(Br)cc2)cc1 [II] | – | 84 | 67 | 41.6 * % | 66 | −0.41 ± 0.026 | % ICPE (carrageenin-induced rat paw oedema inhibition) ([3]; listed as acid II): 44%
O=C(/C=C/c1cccc(Oc2ccccc2)c1)Oc1cc(=O)oc2ccccc12 [Compound 2b, (E)-2-Oxo-2H-chromen-4-yl 3-(3-phenoxyphenyl)acrylate] | – | 100 | – | – | 100 | −0.661± 0.008 | IC50 [5]: 100 µM; hydrolysis of the ester group by esterase (esterase): hydrolyzed
O=C(O)/C=C/c1cccs1 [IV] | 98 | 60 | – | 42.7 * % | – | −0.56 ± 0.019 | –
O=c1cc(O)c2ccccc2o1 [Compound 4-HC, 4-hydroxycoumarin, reference compound] | – | 100 | – | 62 * % | – | – | –
